Test results published in ChEMBL document CHEMBL5727699, “Pyrimido-pyridazinone compounds and methods of use thereof” (2020).

Molecular target: Tyrosine-protein kinase JAK2 (Homo sapiens, UniProt O60674)
Assay: Thirteen μL of assay buffer in blank and substrate control wells and 13 μL of Enzyme buffer mix in positive and test wells was added. The reaction mixture was incubated for 30 minutes at RT on a plate shaker. […] The reaction plate was incubated for 60 minutes at RT on a plate shaker. The reaction was stopped by adding 40 mM EDTA (10 μL) in buffer. Ten μL of antibody was added to all the wells.

Chain of Tyrosine-protein kinase JAK2 (O60674 whole entry): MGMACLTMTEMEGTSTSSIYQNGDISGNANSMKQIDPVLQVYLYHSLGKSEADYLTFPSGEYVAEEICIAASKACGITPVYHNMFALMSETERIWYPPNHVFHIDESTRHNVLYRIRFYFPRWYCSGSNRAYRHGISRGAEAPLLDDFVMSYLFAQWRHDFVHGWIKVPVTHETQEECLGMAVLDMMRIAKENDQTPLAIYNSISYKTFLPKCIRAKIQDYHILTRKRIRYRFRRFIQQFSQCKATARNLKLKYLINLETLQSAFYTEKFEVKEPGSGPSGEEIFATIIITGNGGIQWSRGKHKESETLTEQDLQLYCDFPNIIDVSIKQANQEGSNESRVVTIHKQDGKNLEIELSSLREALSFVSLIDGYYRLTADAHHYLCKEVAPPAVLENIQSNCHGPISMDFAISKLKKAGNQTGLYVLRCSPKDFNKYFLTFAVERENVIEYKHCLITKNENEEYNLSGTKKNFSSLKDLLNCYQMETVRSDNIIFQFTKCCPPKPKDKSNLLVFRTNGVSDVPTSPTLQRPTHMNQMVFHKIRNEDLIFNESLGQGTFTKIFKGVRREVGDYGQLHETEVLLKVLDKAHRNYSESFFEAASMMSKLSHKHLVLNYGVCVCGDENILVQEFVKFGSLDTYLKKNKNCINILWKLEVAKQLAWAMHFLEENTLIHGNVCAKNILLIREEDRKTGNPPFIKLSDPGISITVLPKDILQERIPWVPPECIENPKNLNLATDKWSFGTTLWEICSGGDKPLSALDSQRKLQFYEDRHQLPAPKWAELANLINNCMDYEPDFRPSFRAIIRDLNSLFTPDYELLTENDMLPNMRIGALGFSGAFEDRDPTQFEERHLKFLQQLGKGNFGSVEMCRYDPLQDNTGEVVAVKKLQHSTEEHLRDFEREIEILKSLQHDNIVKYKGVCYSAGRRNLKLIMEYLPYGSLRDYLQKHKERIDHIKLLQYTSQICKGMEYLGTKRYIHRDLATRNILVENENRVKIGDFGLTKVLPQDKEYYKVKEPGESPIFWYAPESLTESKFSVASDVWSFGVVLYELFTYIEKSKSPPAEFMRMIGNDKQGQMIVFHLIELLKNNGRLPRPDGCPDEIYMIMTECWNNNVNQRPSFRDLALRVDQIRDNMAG

SMILES: CC(C)(C#N)N1CCN(c2ccc(Nc3nc(N4CCCCCC4)nc4cn[nH]c(=O)c34)cc2)CC1
- IC50: > 100 nM
